Values quoted from earlier work as cited in patent US6541487B1, “PDE III inhibitors for treating sexual dysfunction” (R.T. Alamo Ventures I, LLC, priority 1998, dated 2003).

What was measured:
[1] = test system: coronary vascular smooth muscle tissue
[2] = test system: PDE III
[3] = test system: corpus cavernosum; conditions: intracavernosal injection; severe atherosclerosis not involved
[4] = for priapism: treatment of impotence
[5] = following oral administration
[6] = test system: platelet aggregation
[7] = test system: plasma high density lipoprotein cholesterol; conditions: in vivo
[8] = not given; remark: listed apart in the source

In the case of `CCCc1nn(C)c2c(=O)[nH]c(-c3cc(S(=O)(=O)N4CCN(C)CC4)ccc3OCC)nc12` [Sildenafil], the “cyclic AMP levels” value [1] is listed as “no change”, the “cyclic GMP levels” value [1] is listed as “selectively increases” and the “inhibition of PDE III” value [2] is listed as “negligible inhibition”.

For `CC(COc1ccccc1)N(CCCl)Cc1ccccc1` (stereo not drawn) [phenoxybenzamine], the “erection after injection into a corpus cavernosum” value (“erection” below) [3] is given as “erection sufficient for vaginal penetration”, the carcinogenicity ([4]; in vivo) is given as “carcinogen” and the priapism [4] is given as “often results in priapism”.

In the case of `COc1ccc(Cc2nccc3cc(OC)c(OC)cc23)cc1OC` [papaverine], the “erection” value [3] is listed as “erection sufficient for vaginal penetration” and the priapism [4] is listed as “often results in priapism”.

For `Cc1ccc(N(CC2=NCCN2)c2cccc(O)c2)cc1` [phentolamine], the “erection” value [3] is given as “erection sufficient for vaginal penetration”.

In the case of `O=C1CCc2cc(OCCCCc3nnnn3C3CCCCC3)ccc2N1` [cilostazol, 6-[4-(1-cyclohexyl-5-tetrazoyl)butoxy]-1,2,3,4-tetrahydro-2-oxoquinoline], the “time of peak plasma concentrations of cilostazol” value [5] is given as 2 to 4 h, the platelet aggregation [6] is given as “suppresses” and the “plasma high density lipoprotein cholesterol” value [7] is given as “increasing”.

In the case of `Cn1cc([S+](C)[O-])c(=O)c2ccc(F)cc21` (stereo not drawn) [flosequinan, 7-fluoro-1-methyl-3-methylsulphinyl-4-quinolone], the “time of peak plasma concentrations of flosequinan” value (following oral administration) is listed as 1 to 2 h, the “time of peak metabolite plasma levels” value (following oral dosage, metabolite of flosequinan) is listed as “about seven” and the mean absolute bioavailability (oral, single dose per day of 50 milligrams or 75 milligrams) is listed as 72%. The “inhibition of PDE III” value [2] was “selective inhibitor”, the “solubility in organic solvents” value [8] was “soluble in many organic solvents” and the solubility in water [8] was “water soluble”.
